Columns and labels:
[1] = Coagulation tests with combinations of ferric and ferrous salts and other potentially coagulating salts (Example 2); settings: CONC. TEST 5.00% by weight
Description: Before reaching the formula object of the invention various other combinations of ferric and ferrous Salts with other potentially coagulating Salts were tested. Below are briefly reported the combinations of Salts tested and the results obtained also in comparison with Ferric Chloride.

[2] = tested on: NIH3T3L6 fibroblasts; assay: In vitro cytotoxicity, trypan blue cell viability; format: cell-based, murine
Description: The cytotoxic effect was assessed in vitro thanks to the use of murine fibroblasts (NIH3T3L6 fibroblasts from Leibniz-Institute DSMZ-Deutsche Sammlung von Mikroorganismen und Zellkulturen GmbH; Brunswick, Germany) and, once the cells were propagated, we prepared the following experimental groups: • control (NIH3T3L6 cells without any treatment); • iron chloride 5% ([…]); • iron ammonium citrate 5.3% + Rock alum 1.7% ([…] 5.3% + Rock alum 1.7%); • iron ammonium citrate 5.3% ([…] 5.3%); • Rock alum 1.7% ([…]).
The in vitro cytotoxicity analysis thanks to the evaluation of the trypan blue allowed us to obtain the percentage of viable cells in each experimental group.

O.O.O.O.O.O.[Cl-].[Cl-].[Cl-].[Fe+3] [Ferric Chloride (FeCl3 · 6H2O)]
RESULTS (coagulation) [1]: coagulates
cytotoxic effect (cell death, percentage of viable cells by trypan blue) ([2]; NIH3T3L6 cells incubated 30" with 100µL): significant cell death
cell death ([2]; incubation of murine fibroblasts for a time greater than 45"-50"): complete cell death

Source: patent publication EP4114474B1, “HEMOSTATIC AGENT” (Industria Farmaceutica Nova Argentia S.r.l., priority 2020, dated 2021)
